Measured values: ChEMBL document CHEMBL1201862, “PubChem BioAssay data set” (2004)
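Exposure lasted 48 hours, with cells grown in 96-well plates and compounds tested at five concentrations. GI50 marks 50% less growth.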 Calls of active or inactive are those of the source. No stated cut-off is given here; in the data, active = GI50 up to about 1.1 µM and inactive = higher.

Tests used:
Assay in all cases: DTP human tumour cell line panel, 48 h
[1] = tested on: SK-MEL-2
[2] = tested on: OVCAR-4
[3] = tested on: NCI-H522
[4] = tested on: SF-295
[5] = tested on: SK-MEL-5
[6] = tested on: HOP-18
[7] = tested on: UACC-62
[8] = tested on: ACHN
[9] = tested on: MOLT-4
[10] = tested on: UO-31
[11] = tested on: UACC-257
[12] = tested on: OVCAR-5
[13] = tested on: SW-620
[14] = tested on: RXF 631
[15] = tested on: COLO 205
[16] = tested on: K562
[17] = tested on: TK-10
[18] = tested on: HT-29
[19] = tested on: SF-539
[20] = tested on: EKVX
[21] = tested on: Malme-3M
[22] = tested on: RXF 393
[23] = tested on: CCRF-CEM
[24] = tested on: HOP-62
[25] = tested on: DLD-1
[26] = tested on: RPMI-8226
[27] = tested on: SNB-78
[28] = tested on: DMS-273
[29] = tested on: SF-268
[30] = tested on: XF498
[31] = tested on: CAKI-1
[32] = tested on: U-251
[33] = tested on: NCI-H23
[34] = tested on: SK-OV-3
[35] = tested on: SR
[36] = tested on: KM12
[37] = tested on: KM-20L2
[38] = tested on: SNB-19
[39] = tested on: SK-MEL-28
[40] = tested on: HOP-92
[41] = tested on: M19-MEL
[42] = tested on: HCT-15
[43] = tested on: HCT-116
[44] = tested on: NCI-H460
[45] = tested on: NCI-H226
[46] = tested on: 786-0
[47] = tested on: SNB-75
[48] = tested on: LXFL 529
[49] = tested on: A549
[50] = tested on: M14
[51] = tested on: A498
[52] = tested on: IGROV-1
[53] = tested on: HL-60
[54] = tested on: DMS-114
[55] = tested on: OVCAR-3
[56] = tested on: OVCAR-8
[57] = tested on: LOX IMVI
[58] = tested on: SN12C
[59] = tested on: HCC 2998

## COc1ccc(/N=C/c2ccc(N(CCC#N)S(=O)(=O)c3ccccc3)cc2)cc1
[1]
  GI50: > 100 µM (inactive)
[2]
  GI50: > 100 µM (inactive)
[3]
  GI50: > 100 µM (inactive)
[4]
  GI50: > 100 µM (inactive)
[5]
  GI50: > 100 µM (inactive)
[6]
  GI50: > 100 µM (inactive)
[7]
  GI50: > 100 µM (inactive)
[8]
  GI50: > 100 µM (inactive)
[9]
  GI50: > 100 µM (inactive)
[10]
  GI50: > 100 µM (inactive)
[11]
  GI50: > 100 µM (inactive)
[12]
  GI50: > 100 µM (inactive)
[13]
  GI50: > 100 µM (inactive)
[14]
  GI50: > 100 µM (inactive)
[15]
  GI50: > 100 µM (inactive)
[16]
  GI50: 68.1 µM (inactive)
[17]
  GI50: > 100 µM (inactive)
[18]
  GI50: > 100 µM (inactive)
[19]
  GI50: > 100 µM (inactive)
[20]
  GI50: > 100 µM (inactive)
[21]
  GI50: > 100 µM (inactive)
[22]
  GI50: > 100 µM (inactive)
[23]
  GI50: > 100 µM (inactive)
[24]
  GI50: > 100 µM (inactive)
[25]
  GI50: > 100 µM (inactive)
[26]
  GI50: > 100 µM (inactive)
[27]
  GI50: > 100 µM (inactive)
[28]
  GI50: > 100 µM (inactive)
[29]
  GI50: > 100 µM (inactive)
[30]
  GI50: > 100 µM (inactive)
[31]
  GI50: > 100 µM (inactive)
[32]
  GI50: > 100 µM (inactive)
[33]
  GI50: > 100 µM (inactive)
[34]
  GI50: > 100 µM (inactive)
[35]
  GI50: > 100 µM (inactive)
[36]
  GI50: > 100 µM (inactive)
[37]
  GI50: > 100 µM (inactive)
[38]
  GI50: > 100 µM (inactive)
[39]
  GI50: > 100 µM (inactive)
[40]
  GI50: > 100 µM (inactive)
[41]
  GI50: > 100 µM (inactive)
[42]
  GI50: > 100 µM
[43]
  GI50: > 100 µM (inactive)
[44]
  GI50: > 100 µM (inactive)
[45]
  GI50: > 100 µM (inactive)
[46]
  GI50: > 100 µM (inactive)
[47]
  GI50: > 100 µM (inactive)
[48]
  GI50: > 100 µM (inactive)
[49]
  GI50: > 100 µM (inactive)
[50]
  GI50: > 100 µM (inactive)
[51]
  GI50: > 100 µM (inactive)
[52]
  GI50: > 100 µM (inactive)
[53]
  GI50: > 100 µM (inactive)
[54]
  GI50: > 100 µM (inactive)
[55]
  GI50: > 100 µM (inactive)
[56]
  GI50: > 100 µM (inactive)
[57]
  GI50: > 100 µM (inactive)
[58]
  GI50: > 100 µM (inactive)

## CC1=NC(C(=O)O)Cc2c1[nH]c1ccccc21 (configuration not stated)
[1]
  GI50: > 100 µM (inactive)
[3]
  GI50: > 100 µM (inactive)
[4]
  GI50: > 100 µM (inactive)
[5]
  GI50: > 100 µM (inactive)
[6]
  GI50: > 100 µM (inactive)
[7]
  GI50: > 100 µM (inactive)
[8]
  GI50: > 100 µM (inactive)
[9]
  GI50: > 100 µM (inactive)
[10]
  GI50: > 100 µM (inactive)
[13]
  GI50: > 100 µM (inactive)
[14]
  GI50: > 100 µM (inactive)
[15]
  GI50: > 100 µM (inactive)
[16]
  GI50: > 100 µM (inactive)
[17]
  GI50: > 100 µM (inactive)
[18]
  GI50: > 100 µM (inactive)
[19]
  GI50: > 100 µM (inactive)
[20]
  GI50: > 100 µM (inactive)
[21]
  GI50: > 100 µM (inactive)
[23]
  GI50: > 100 µM (inactive)
[24]
  GI50: < 0.01 µM (active)
[25]
  GI50: > 100 µM (inactive)
[26]
  GI50: > 100 µM (inactive)
[27]
  GI50: > 100 µM (inactive)
[29]
  GI50: > 100 µM (inactive)
[30]
  GI50: > 100 µM (inactive)
[31]
  GI50: > 100 µM (inactive)
[32]
  GI50: > 100 µM (inactive)
[33]
  GI50: > 100 µM (inactive)
[34]
  GI50: > 100 µM (inactive)
[37]
  GI50: > 100 µM (inactive)
[38]
  GI50: > 100 µM (inactive)
[39]
  GI50: > 100 µM (inactive)
[40]
  GI50: 14.6 µM (inactive)
[41]
  GI50: > 100 µM (inactive)
[42]
  GI50: > 100 µM
[44]
  GI50: > 100 µM (inactive)
[45]
  GI50: > 100 µM (inactive)
[47]
  GI50: > 100 µM (inactive)
[48]
  GI50: > 100 µM (inactive)
[50]
  GI50: > 100 µM (inactive)
[51]
  GI50: > 100 µM (inactive)
[52]
  GI50: > 100 µM (inactive)
[53]
  GI50: > 100 µM (inactive)
[54]
  GI50: > 100 µM (inactive)
[55]
  GI50: > 100 µM (inactive)
[56]
  GI50: > 100 µM (inactive)
[57]
  GI50: > 100 µM (inactive)
[58]
  GI50: > 100 µM (inactive)

## CC1=C(C(=O)Nc2ccc(Cl)c(Cl)c2)C(c2ccco2)C(C(=O)Nc2ccc(Cl)c(Cl)c2)=C(C)N1
[1]
  GI50: 12.4 µM (inactive)
[2]
  GI50: 12.1 µM (inactive)
[3]
  GI50: 5.73 µM (inactive)
[4]
  GI50: 7.91 µM (inactive)
[5]
  GI50: 13.7 µM (inactive)
[6]
  GI50: 12.5 µM (inactive)
[7]
  GI50: 12.9 µM (inactive)
[8]
  GI50: 5 µM (inactive)
[9]
  GI50: 4.98 µM (inactive)
[10]
  GI50: 10.1 µM (inactive)
[11]
  GI50: 14.7 µM (inactive)
[12]
  GI50: 15.1 µM (inactive)
[13]
  GI50: 14.6 µM (inactive)
[14]
  GI50: 12.9 µM (inactive)
[15]
  GI50: 12.9 µM (inactive)
[16]
  GI50: 7.06 µM (inactive)
[17]
  GI50: 6.44 µM (inactive)
[18]
  GI50: 14.4 µM (inactive)
[19]
  GI50: 13.8 µM (inactive)
[20]
  GI50: 14.9 µM (inactive)
[21]
  GI50: 14.8 µM (inactive)
[23]
  GI50: 6.58 µM (inactive)
[24]
  GI50: 14 µM (inactive)
[25]
  GI50: 10.3 µM (inactive)
[26]
  GI50: 7.16 µM (inactive)
[27]
  GI50: 17.3 µM (inactive)
[28]
  GI50: 16 µM (inactive)
[29]
  GI50: 11.4 µM (inactive)
[30]
  GI50: 1.11 µM (active)
[31]
  GI50: 14 µM (inactive)
[32]
  GI50: 11 µM (inactive)
[33]
  GI50: 17.8 µM (inactive)
[34]
  GI50: 13.5 µM (inactive)
[35]
  GI50: 10.6 µM (inactive)
[36]
  GI50: 13.4 µM (inactive)
[38]
  GI50: 12.7 µM (inactive)
[39]
  GI50: 11.7 µM (inactive)
[40]
  GI50: 15.8 µM (inactive)
[41]
  GI50: 11.8 µM (inactive)
[42]
  GI50: 11.5 µM
[43]
  GI50: 9.84 µM (inactive)
[44]
  GI50: 13.7 µM (inactive)
[45]
  GI50: 12.5 µM (inactive)
[46]
  GI50: 13 µM (inactive)
[47]
  GI50: 13.9 µM (inactive)
[48]
  GI50: 11.9 µM (inactive)
[59]
  GI50: 11.5 µM (inactive)
[49]
  GI50: 12.5 µM (inactive)
[50]
  GI50: 6.14 µM (inactive)
[51]
  GI50: 12.8 µM (inactive)
[52]
  GI50: 14.3 µM (inactive)
[53]
  GI50: 19.3 µM (inactive)
[54]
  GI50: 9.16 µM (inactive)
[55]
  GI50: 7.98 µM (inactive)
[56]
  GI50: 11.2 µM (inactive)
[58]
  GI50: 11.6 µM (inactive)
